Assay: incorporation of adriamycin into MFG, by difference, spectrofluorometric determination
Assay type: physicochemical
Conditions: 0.9 ml packed MFG with 0.1 ml adriamycin 1 mg/ml in PBS, overnight at room temperature
Experimental: The milk fat globules to be loaded with drug are obtained from raw bovine milk by centrifugation at 1,500 x g for 10 min at room temperature followed by removal of the underlying (sub-natant) aqueous material. The MFG is washed three times by the addition of phosphate buffered saline, pH 7.4 (PBS) to the original volume followed by centrifugation at 1500 x g for 10 min and removal of the sub-natant fluid. Adriamycin is rapidly and stably loaded into the MFG very efficiently by incubating 0.9 ml packed MFG with 0.1 ml adriamycin, dissolved in PBS to a concentration of 1 mg/ml, overnight at room temperature. The resultant MFG is then transferred to a 10 ml syringe fitted with a stopcock, brought to 10 ml with PBS and centrifuged at 1500 x g for 10 min. The sub-natant fluid is removed by opening the stopcock and the milk fat globule layer is washed three times by gentle suspension in PBS followed by centrifugation. […] The presence of adriamycin is detected in the MFG by its fluorescence emission at 590 nm using fluorescence microscopy. Alternatively, the amount of incorporated adriamycin can be calculated by difference, after determination of the amount of adriamycin remaining in the first sub-natant fraction by spectrofluorometric determination using an excitation wavelength of 470 nm and an emission wavelength of 590 nm. […]

Structure (SMILES): COc1cccc2c1C(=O)c1c(O)c3c(c(O)c1C2=O)C[C@@](O)(C(=O)CO)C[C@@H]3O[C@H]1C[C@H](N)[C@H](O)[C@H](C)O1 [adriamycin]
- added drug incorporated into the MFG: up to 80%

— patent EP0306971A2, “Use of milk fat globules as carriers for drugs and as microflotation devices in immunoassays and cell/molecular fractionation” (Bankert, Richard B., priority 1987, dated 1989)
